Reference: patent publication US20130123494A1, “COMPLEX COMPOUND AND OPTICAL RECORDING MEDIUM CONTAINING SAME” (KH NEOCHEM CO., LTD., priority 2010, published 2013)

Key:
Assay type in all cases: physicochemical
[1] = Lightfastness test of thin films; conditions: thin film on glass plate, UV fluorescent lamps 15 W/m^2, 45° C., 10 hours
From the text: Thin films of Complex Compounds (2) to (5), (7), (9) to (11), (13) to (21), (24), (26), (28), (30), (31), and (33) were respectively obtained similarly to the film-forming test except that a glass plate (manufactured by Taiyu Kizai Co., Ltd.; 2 cm×2 cm; thickness: 2 mm) was used as the substrates instead of the plate made of polycarbonate resin. Using a dewpanel light control weather meter DPWL-5R, manufactured by Suga Test Instruments Co., Ltd., which was equipped with ultraviolet fluorescent lamps (SUGA-FS40, manufactured by Suga Test Instruments Co., Ltd., having a peak wavelength of 313 nm and an illuminance distribution of 282 nm to 373 nm), light was irradiated on the thin films with an amount of light of 15 W/m^2 at 45° C. for 10 hours. Ultraviolet-visible absorption spectra of the thin film before and after the lightfastness test were measured using a spectrophotometer.
Here, the absorption maximum wavelength after lightfastness test denotes an absorption maximum wavelength in the absorption spectrum after the lightfastness test.

[2] = Test of storage stability in solution; conditions: 13 mg in 1 mL TFP, brown bottle, 25° C., 3 days; 1250-fold diluted for measurement
Method: Each of 13 mg of Complex Compounds (2) to (5), (7), (9) to (11), (13) to (21), (24), (26), (28), (30), (31), and (33) was dissolved in 1 mL of TFP, which was filtered with a filter made of TEFLON (registered trademark) (manufactured by Whatman, having a pore diameter of 0.20 μm), and solutions of Complex Compounds (2) to (5), (7), (9) to (11), (13) to (21), (24), (26), (28), (30), (31), and (33) were respectively obtained. Each of the obtained solutions was transferred to a brown bottle with a lid and stored at 25° C. for 3 days. Before and after the storage stability test, using a spectrophotometer, 1250-fold diluted solutions of Complex Compounds (2) to (5), (7), (9) to (11), (13) to (21), (24), (26), (28), (30), (31), and (33), respectively, were measured for their ultraviolet-visible absorption spectra. […] Here, the absorption maximum wavelength after the storage stability test is the absorption maximum wavelength in the absorption spectrum after the storage stability test.

[3] = Water resistance test of thin films; conditions: for I^d/I^d0 (absorbance ratio at absorption maximum after/before water resistance test) / Δλmax (d) (change in absorption maximum wavelength): thin film immersed in water at 75° C. for 30 minutes; for Water resistance of thin film (in words): thin film in water at 75° C. for 30 minutes
Method: Similarly to the film-forming test, thin films of Complex Compounds (2), (3), (13), (19), and (20) were respectively obtained. Ultraviolet-visible absorption spectra of the thin films were measured using a spectrophotometer before and after the water resistance test in which the thin films were immersed in water at 75° C. for 30 minutes. […] Here, the absorption maximum wavelength after the water resistance test denotes the absorption maximum wavelength in the absorption spectrum after the water resistance test. […] Here, the water resistance test is a test under severe conditions, and a thin film having the ratio (I^d/I^d0) of 0.5 or greater has favorable water resistance.

[4] = Moisture- and heat-resistances test of thin films; conditions: thin film, 80° C., relative humidity 80%, 100 hours
Method: Similarly to the film-forming test, thin films of Complex Compounds (2) to (5), (7), (9) to (11), (13) to (21), (24), (26), (28), (30), (31), and (33) were respectively obtained. Using a constant temperature and humidity chamber, KHWII-40HP, manufactured by Satake Chemical Equipment Mfg Ltd., the thin films were exposed in the atmosphere having a temperature of 80° C. and a relative humidity of 80% for 100 hours. Ultraviolet-visible absorption spectra of the thin films before and after the moisture- and heat-resistances test were measured using a spectrophotometer. […] Here, the absorption maximum wavelength after the moisture- and heat-resistances test denotes the absorption maximum wavelength in an absorption spectrum after the moisture- and heat-resistances test.

SMILES | I^a/I^a0 (absorbance ratio at absorption maximum after/before lightfastness test) [1] | I^c/I^c0 (absorbance ratio at absorption maximum after/before storage stability test) [2] | Δλmax(c) (change in absorption maximum wavelength) [2] | I^d/I^d0 (absorbance ratio at absorption maximum after/before water resistance test) [3] | Δλmax (d) (change in absorption maximum wavelength) [3] | Water resistance of thin film (in words) [3] | I^b/I^b0 (absorbance ratio at absorption maximum after/before moisture- and heat-resistances test) [4] | Δλmax(b) (change in absorption maximum wavelength) [4]
Cc1c(/C=N/[N-]c2nnnn2-c2ccccc2)c([O-])n(CC(C)C)c(=O)c1C#N.Cc1c(/C=N/[N-]c2nnnn2-c2ccccc2)c([O-])n(CC(C)C)c(=O)c1C#N.Cc1c(/C=N/[N-]c2nnnn2-c2ccccc2)c([O-])n(CC(C)C)c(=O)c1C#N.Cc1c(/C=N/[N-]c2nnnn2-c2ccccc2)c([O-])n(CC(C)C)c(=O)c1C#N.FC(F)(F)c1cccc(-[n+]2ccc(-c3cc[n+](-c4cccc(C(F)(F)F)c4)cc3)cc2)c1.[Co+3].[Co+3] [Complex Compound (19)] | 0.85 | 0.99 | 0 nm | 0.76 | 0 nm | superior water resistance | 0.99 | 0 nm
Cc1c(/C=N/[N-]c2nnnn2-c2ccccc2)c([O-])n(CC(C)C)c(=O)c1C#N.Cc1c(/C=N/[N-]c2nnnn2-c2ccccc2)c([O-])n(CC(C)C)c(=O)c1C#N.Cc1c(/C=N/[N-]c2nnnn2-c2ccccc2)c([O-])n(CC(C)C)c(=O)c1C#N.Cc1c(/C=N/[N-]c2nnnn2-c2ccccc2)c([O-])n(CC(C)C)c(=O)c1C#N.Fc1ccc(-[n+]2ccc(-c3cc[n+](-c4ccc(F)cc4)cc3)cc2)cc1.[Co+3].[Co+3] [Complex Compound (20)] | 0.86 | 1.00 | 0.5 nm | 0.59 | 0.5 nm | superior water resistance | 1.00 | 0.5 nm
Cc1c(/C=N/[N-]c2nnnn2-c2ccccc2)c([O-])n(Cc2ccccc2)c(=O)c1C#N.Cc1c(/C=N/[N-]c2nnnn2-c2ccccc2)c([O-])n(Cc2ccccc2)c(=O)c1C#N.Cc1c(/C=N/[N-]c2nnnn2-c2ccccc2)c([O-])n(Cc2ccccc2)c(=O)c1C#N.Cc1c(/C=N/[N-]c2nnnn2-c2ccccc2)c([O-])n(Cc2ccccc2)c(=O)c1C#N.[Co+3].[Co+3].c1cc[n+]2c(c1)-c1cccc[n+]1CCC2 [Complex Compound (30)] | 0.89 | 0.99 | 0 nm |  |  |  | 0.99 | 0 nm
CCn1c([O-])c(/C=N/[N-]c2ncccn2)c(C)c(C#N)c1=O.CCn1c([O-])c(/C=N/[N-]c2ncccn2)c(C)c(C#N)c1=O.CCn1c([O-])c(/C=N/[N-]c2ncccn2)c(C)c(C#N)c1=O.CCn1c([O-])c(/C=N/[N-]c2ncccn2)c(C)c(C#N)c1=O.Oc1ccc(-c2ccccc2)cc1-[n+]1ccc(-c2cc[n+](-c3cc(-c4ccccc4)ccc3O)cc2)cc1.[Co+3].[Co+3] [Complex Compound (7)] | 0.99 | 1.00 | 0 nm |  |  |  | 1.00 | 0 nm
CCCCn1c([O-])c(/C=N/[N-]c2nnnn2-c2ccccc2)c(CCC)c(C#N)c1=O.CCCCn1c([O-])c(/C=N/[N-]c2nnnn2-c2ccccc2)c(CCC)c(C#N)c1=O.CCCCn1c([O-])c(/C=N/[N-]c2nnnn2-c2ccccc2)c(CCC)c(C#N)c1=O.CCCCn1c([O-])c(/C=N/[N-]c2nnnn2-c2ccccc2)c(CCC)c(C#N)c1=O.[Co+3].[Co+3].c1cc2ccc3ccc[n+]4c3c2[n+](c1)CCC4 [Complex Compound (28)] | 0.88 | 0.99 | 0 nm |  |  |  | 0.99 | 0 nm
Cc1c(/C=N/[N-]c2nnnn2-c2ccccc2)c([O-])n(CC(C)C)c(=O)c1C#N.Cc1c(/C=N/[N-]c2nnnn2-c2ccccc2)c([O-])n(CC(C)C)c(=O)c1C#N.Cc1c(/C=N/[N-]c2nnnn2-c2ccccc2)c([O-])n(CC(C)C)c(=O)c1C#N.Cc1c(/C=N/[N-]c2nnnn2-c2ccccc2)c([O-])n(CC(C)C)c(=O)c1C#N.[Co+3].[Co+3].c1ccc2c[n+](CCCCCC[n+]3ccc4ccccc4c3)ccc2c1 [Complex Compound (17)] | 0.88 | 0.98 | 0 nm |  |  |  | 0.98 | 0 nm
CCn1c([O-])c(/C=N/[N-]C(=O)c2ccc(C(F)(F)F)cc2)c(C)c(C#N)c1=O.CCn1c([O-])c(/C=N/[N-]C(=O)c2ccc(C(F)(F)F)cc2)c(C)c(C#N)c1=O.CCn1c([O-])c(/C=N/[N-]C(=O)c2ccc(C(F)(F)F)cc2)c(C)c(C#N)c1=O.CCn1c([O-])c(/C=N/[N-]C(=O)c2ccc(C(F)(F)F)cc2)c(C)c(C#N)c1=O.[Co+3].[Co+3].c1cc2ccc3ccc[n+]4c3c2[n+](c1)CCC4 [Complex Compound (10)] | 0.99 | 1.00 | 0 nm |  |  |  | 1.00 | 0.5 nm
COc1ccc2cc3[n+](cc2c1OC)CCc1cc2c(cc1-3)OCO2.Cc1c(/C=N/[N-]c2nnnn2-c2ccccc2)c([O-])n(CC(C)C)c(=O)c1C#N.Cc1c(/C=N/[N-]c2nnnn2-c2ccccc2)c([O-])n(CC(C)C)c(=O)c1C#N.[Co+3] [Complex Compound (18)] | 0.90 | 1.00 | 0 nm |  |  |  | 1.00 | 0 nm
Cc1c(/C=N/[N-]c2nnnn2-c2ccccc2)c([O-])n(CC(C)C)c(=O)c1C#N.Cc1c(/C=N/[N-]c2nnnn2-c2ccccc2)c([O-])n(CC(C)C)c(=O)c1C#N.[Co+3].c1ccc(-c2nn(-c3ccccc3)[n+](-c3ccccc3)n2)cc1 [Complex Compound (15)] | 0.88 | 1.01 | 0 nm |  |  |  | 1.00 | 0 nm
